Laboratory results taken from patent US11771086B2, “Pest control composition including novel iminopyridine derivative” (priority 2012, dated 2023).
Where two headings read alike, the source gives them in different places.

Columns and labels:
[1] = tested on: Plutella xylostella; assay: whole plant or invertebrate; format: in vivo
Procedure: (§1) After an air drying process, second instar larvae were released thereto. […] The test was performed in duplicate.
(§2) Method for Judging Synergistic Effects

[2] = tested on: Haemaphysalis longicornis; assay: whole plant or invertebrate; format: in vivo; settings: for mortality at 0.00038 mg: read-out: Mortality of single agent against Haemaphysalis longicornis, single agent 0.38 μg
Procedure: A capsule with a diameter of 2 cm and a height of 2 cm was attached to the dorsal surface of a mouse. A compound of Formula (I), ivermectin, moxidectin, permethrin, amitraz, fipronil, spinetram and the mixture of the compound of Formula (I) and each insecticide were dissolved in ethanol at the concentrations given in […], and each of these was dripped onto the surface of a mouse body within a capsule. After thorough drying, eight Haemaphysalis longicornis nymphs were released and the top of the capsule was sealed with a lid. The mouse was kept in a cage at 25° C. using a 12-hour light period and a 12-hour dark period. Five days after the release, the capsule was removed and the number of surviving and dead nymphs and the number of engorged individuals were counted and the insect mortality and agonal rate was calculated by the following equation. Insect mortality and agonal rate (%)={number of dead and agonal insects/(number of survived insects+number of dead and agonal insects)}×100

[3] = tested on: Chilo suppressalis; format: in vivo; settings: soil irrigation, six days after release
Procedure: After standing for 3 days, second instar larvae were released thereto. […] The test was performed in duplicate.
as §2

[4] = tested on: Laodelphax striatella; assay: whole plant or invertebrate; settings: for mortality at 0.05 mg/seedling: read-out: Mortality of single agent against Laodelphax striatella, single agent 0.05 mg/Seedling; for mortality at 0.005 mg/seedling: read-out: Mortality of single agent against Laodelphax striatella, single agent 0.005 mg/Seedling; for Theoretical value by Colby's equation: Laodelphax striatella soil irrigation
Procedure: (§3) After the rice seedling was left to stand for 3 days, second instar larvae were released thereto. Thereafter, the larvae were left to stand in a thermostatic chamber (16 hours of light period-8 hours of dark period) at 25° C. […] The test was performed in duplicate. Mortality of larvae (%)={number of dead larvae/(number of survived larvae+number of dead larvae)}×100
B: 100−(mortality of larvae or adults when treated only with each of imidacloprid, fipronil, chlorantraniliprole, spinosad, clothianidin, dinotefuran, sulfoxaflor, pymetrozine, thiamethoxam, flupyradifurone and cycloxaprid))
as §2
When the mortality against Laodelphax striatella in the case of a mixture with another agent exceeded the theoretical value by the Colby's equation, a synergistic effect was judged to be present.

[5] = tested on: Spodoptera litura; assay: whole plant or invertebrate; format: in vivo
Procedure: After an air drying process, third instar larvae were released thereto. […] The test was performed in duplicate.
as §2

[6] = tested on: Plutella xylostella; assay: Reference Test Example 1 Pest control test of Plutella xylostella (foliar treatment, single agent); format: in vivo; parameters: Plutella xylostella (Reference Test Example 1), mortality of larvae: concentration or dose not given beside the values; settings: foliar treatment, single agent
Excerpt: After an air drying process, second instar larvae were released thereto. […] Test in duplicate.

[7] = tested on: Laodelphax striatella; assay: Reference Test Example 18 Pest control test of Laodelphax striatella (wheat seedling root treatment); format: in vivo; settings: wheat seedling roots treated; four days after release; 20 μg/seedling
Procedure: The drug was absorbed from the roots for 72 hours, and then ten second instar larvae of Laodelphax striatella were each released thereto. […] The test was performed in duplicate.

[8] = tested on: Aphis gossypii; assay: Reference Test Example 3 Pest control test of Aphis gossypii (foliar treatment, single agent); format: in vivo; parameters: Aphis gossypii (Reference Test Example 3), mortality of larvae: concentration or dose not given beside the values; settings: foliar treatment, single agent
[9] = tested on: rice blast; format: in vivo; settings: single agent 0.5 ppm; foliar application; fourteen days after inoculation
[10] = tested on: Frankliniella occidentalis; assay: whole plant or invertebrate
Procedure: as §3, with “an air drying process, first” for “the rice seedling was left to stand for 3 days, second”
(A: 100−(mortality of larvae or adults when treated only with Compound P212)
B: 100−(mortality of larvae or adults when treated with only the insecticide imidacloprid, dinotefuran, or acetamiprid))
as §2
When the mortality against Frankliniella occidentalis in the case of a mixture with another agent exceeded the theoretical value given by Colby's equation, a synergistic effect was judged to be present.

[11] = tested on: Laodelphax striatella; assay: whole plant or invertebrate; format: in vivo
Procedure: as §1, §2

[12] = tested on: Rhizoctonia solani; assay: Test Example 12 Test of control of rice sheath blight (Rhizoctonia solani); format: in vivo; settings: single agent 5 ppm; foliar spray; six days after inoculation
[13] = Haemaphysalis longicornis, topical, 120 h, capsule on mouse, five days, mortality and agonal rate
[14] = Laodelphax striatellus, soil, 72 h, soil irrigation
[15] = Laodelphax striatellus, foliar, 72 h, read-out: Mortality of single agent against Laodelphax striatella

O=c1c(-c2ccccc2)c([O-])[n+](Cc2ccc(Cl)nc2)c2ccccn12 [1-((6-chloropyridin-3-yl)methyl)-4-oxo-3-phenyl-4H-pyrido[1,2-a]pyrimidin-1-ium-2-olate]
mortality at 1 ppm ([1]; Plutella xylostella, foliar, 72 h, read-out: Mortality of single agent against Plutella xylostella, single agent 1 ppm, cabbage leaf disk spray, three days): 30%
Theoretical value by Colby's equation ([1]; Plutella xylostella, single agent 1 ppm (other component 0)): 30%

Cc1ccc(/N=C/N(C)/C=N/c2ccc(C)cc2C)c(C)c1 [Amitraz]
mortality at 0.00038 mg [2, 13]: 41%

CNC(=O)c1cc(Cl)cc(C)c1NC(=O)c1cc(Br)nn1-c1ncccc1Cl [Chlorantraniliprole]
Mortality of single agent against Chilo suppressalis ([3]; single agent 0.0005 mg/seedling): 60%
Theoretical value by Colby's equation ([1]; 0.002 ppm): 60%
mortality at 0.002 ppm ([1]; Plutella xylostella, foliar, 72 h, read-out: Mortality of single agent against Plutella xylostella, single agent 0.002 ppm, cabbage leaf disk spray, three days): 60%
mortality at 0.05 mg/seedling [4, 14]: 9%
Theoretical value by Colby's equation ([5]; 0.02 ppm): 20%
mortality at 0.02 ppm ([5]; Spodoptera litura, foliar, 72 h, read-out: Mortality of single agent against Spodoptera litura, single agent 0.02 ppm, cabbage leaf disk spray, three days): 20%

CN/C(=N\[N+](=O)[O-])NCc1cnc(Cl)s1 [Clothianidin]
mortality at 0.005 mg/seedling [4, 14]: 23%

O=C(N=c1ccccn1Cc1cnc(Cl)nc1)C(F)(F)F [Compound P-243]
Plutella xylostella (Reference Test Example 1), mortality of larvae [6]: 100%
Laodelphax striatella (Reference Test Example 18), mortality of larvae [7]: 100%
Aphis gossypii (Reference Test Example 3), mortality of larvae [8]: 100%

CNC(=O)c1cc(C#N)cc(C)c1NC(=O)c1cc(Br)nn1-c1ncccc1Cl [Cyantraniliprole]
Mortality of single agent against Chilo suppressalis ([3]; single agent 0.005 mg/seedling): 83%

O=[N+]([O-])C1=C2N(Cc3ccc(Cl)nc3)CCN2[C@H]2CC[C@@H]1O2 [Cycloxaprid]
Theoretical value by Colby's equation ([4]; single agent 0.005 mg/Seedling (other component 0)): 0%
Mortality of single agent against Laodelphax striatella ([4]; single agent 0.005 mg/Seedling, soil irrigation): 0%

C[C@@H](NC(=O)C(C#N)C(C)(C)C)c1ccc(Cl)cc1Cl (stereo partly drawn) [Diclocymet]
Preventive value (Rice blast test, number of lesions) [9]: 8

CN/C(=N/CC1CCOC1)N[N+](=O)[O-] (stereo not drawn) [Dinotefuran]
Theoretical value by Colby's equation ([10]; 5 ppm): 35%
mortality at 5 ppm ([10]; Frankliniella occidentalis, foliar, 72 h, read-out: Mortality of single agent against Frankliniella occidentalis): 35%
mortality at 0.005 mg/seedling [4, 14]: 0%

CCOc1ccc(C(C)(C)COCc2cccc(Oc3ccccc3)c2)cc1 [Etofenprox]
mortality at 10 ppm [11, 15]: 30%
Theoretical value by Colby's equation ([11]; foliar, 10 ppm): 30%

CCc1nc2cc(C)c(Oc3ccc(OC(F)(F)F)cc3)cc2c(OC(=O)OC)c1C [Flometoquin]
Theoretical value by Colby's equation ([1]; Plutella xylostella, single agent 0.313 ppm (other component 0)): 0%
Mortality of single agent against Plutella xylostella ([1]; single agent 0.313 ppm, cabbage leaf disk spray, three days): 0%
Theoretical value by Colby's equation ([5]; Spodoptera litura, single agent 5 ppm (other component 0)): 10%
Mortality of single agent against Spodoptera litura ([5]; single agent 5 ppm, cabbage leaf disk spray, three days): 10%

O=C1C=C(N(Cc2ccc(Cl)nc2)CC(F)F)CO1 [Flupyradifurone]
Theoretical value by Colby's equation ([4]; single agent 0.01 mg/Seedling (other component 0)): 5%
Mortality of single agent against Laodelphax striatella ([4]; single agent 0.01 mg/Seedling, soil irrigation): 5%

Cc1nn(C)c(Cl)c1C(=O)Nc1cccc2c1C(C)OC2(C)C (stereo not drawn) [Furametpyr]
Preventive value (Sheath blight test, lesion height) [12]: 77

N#Cc1ccccc1NC(=O)c1snc(Cl)c1Cl [Isotianil]
Preventive value (Rice blast test, number of lesions) [9]: 66
Theoretical value by Colby's equation ([4]; single agent 0.5 mg/Seedling (other component 0)): 5%
Mortality of single agent against Laodelphax striatella ([4]; single agent 0.5 mg/Seedling, soil irrigation): 5%

CC[C@H](C)[C@H]1O[C@]2(CC[C@@H]1C)C[C@@H]1C[C@@H](C/C=C(\C)[C@@H](O[C@H]3C[C@H](OC)[C@@H](O[C@H]4C[C@H](OC)[C@@H](O)[C@H](C)O4)[C@H](C)O3)[C@@H](C)/C=C/C=C3\CO[C@@H]4[C@H](O)C(C)=C[C@@H](C(=O)O1)[C@]34O)O2 [Ivermectin]
Mortality of single agent against Haemaphysalis longicornis ([2]; single agent 0.009 μg, capsule on mouse, five days, mortality and agonal rate): 3%

C[C@H]1O[C@H](O[C@H]2[C@H](O)[C@@H](O)[C@@H](O)[C@H](O)[C@@H]2O)[C@@H](N)C[C@@H]1NC(=N)C(=O)O [Kasugamycin]
Preventive value (Rice blast test, number of lesions) [9]: 0

CO/N=C1\C[C@]2(C[C@@H]3C[C@@H](C/C=C(\C)C[C@@H](C)/C=C/C=C4\CO[C@@H]5[C@H](O)C(C)=C[C@@H](C(=O)O3)[C@]45O)O2)O[C@H](/C(C)=C/C(C)C)[C@H]1C [Moxidectin]
mortality at 9 ng ([2]; Haemaphysalis longicornis, topical, 120 h, read-out: Mortality of single agent against Haemaphysalis longicornis, single agent 0.009 μg, capsule on mouse, five days, mortality and agonal rate): 6%

O=C(Nc1ccccc1)N(Cc1ccc(Cl)cc1)C1CCCC1 [Pencycuron]
Preventive value (Sheath blight test, lesion height) [12]: 69

CC1(C)C(C=C(Cl)Cl)C1C(=O)OCc1cccc(Oc2ccccc2)c1 (stereo not drawn) [Permethrin]
mortality at 0.0095 mg ([2]; Haemaphysalis longicornis, topical, 120 h, read-out: Mortality of single agent against Haemaphysalis longicornis, single agent 9.5 μg, capsule on mouse, five days, mortality and agonal rate): 71%

CC1=NNC(=O)N(/N=C/c2cccnc2)C1 [Pymetrozine]
mortality at 0.05 mg/seedling [4, 14]: 15%

CCOc1ccc([Si](C)(C)CCCc2ccc(F)c(Oc3ccccc3)c2)cc1 [Silafluofen]
Mortality of single agent ([11]; Laodelphax striatella foliar, single agent 5 ppm (other component 0)): 55%
mortality at 5 ppm [11, 15]: 55%

C[Si](C)(C)CC(O)(Cn1cncn1)c1ccc(F)cc1 (stereo not drawn) [Simeconazole]
Preventive value (Sheath blight test, lesion height) [12]: 5

CC(c1ccc(C(F)(F)F)nc1)S(C)(=O)=NC#N (stereo not drawn) [Sulfoxaflor]
mortality at 0.005 mg/seedling [4, 14]: 1%

CC(=O)Oc1c(C)c(C)nc2c(F)cc(C(C)(C)C)cc12 [Tebufloquin]
Preventive value (Rice blast test, number of lesions) [9]: 48

CN1COCN(Cc2cnc(Cl)s2)/C1=N\[N+](=O)[O-] [Thiamethoxam]
mortality at 0.01 mg/seedling ([4]; Laodelphax striatellus, soil, 72 h, read-out: Mortality of single agent against Laodelphax striatella, single agent 0.01 mg/Seedling, soil irrigation): 23%

Cc1nc(C(F)(F)F)c(C(=O)Nc2c(Br)cc(OC(F)(F)F)cc2Br)s1 [Thifluzamide]
Preventive value (Sheath blight test, lesion height) [12]: 92

Cc1ccc(NC(=O)c2snnc2C)cc1Cl [Tiadinil]
Preventive value (Rice blast test, number of lesions) [9]: 0
mortality at 0.5 mg/seedling ([4]; Laodelphax striatellus, soil, 72 h, read-out: Mortality of single agent against Laodelphax striatella, single agent 0.5 mg/Seedling, soil irrigation): 8%

Cc1cccc2sc3nncn3c12 [Tricyclazole]
Preventive value (Rice blast test, number of lesions) [9]: 72

CN/C(=N/CC1CCOC1)N[N+](=O)[O-] (stereo not drawn) [dinotefuran]
mortality at 0.0019 mg ([2]; Haemaphysalis longicornis, topical, 120 h, read-out: Mortality of single agent against Haemaphysalis longicornis, single agent 1.9 μg, capsule on mouse, five days, mortality and agonal rate): 0%

N#Cc1nn(-c2c(Cl)cc(C(F)(F)F)cc2Cl)c(N)c1[S+]([O-])C(F)(F)F (stereo not drawn) [fipronil]
mortality at 0.00038 mg [2, 13]: 78%

CC(COc1ccc(Oc2ccccc2)cc1)Oc1ccccn1 (stereo not drawn) [pyriproxyfen]
mortality at 47.5 ng ([2]; Haemaphysalis longicornis, topical, 120 h, read-out: Mortality of single agent against Haemaphysalis longicornis, single agent 0.0475 μg, capsule on mouse, five days, mortality and agonal rate): 2%

Emamectin benzoate
Theoretical value by Colby's equation ([5]; Spodoptera litura, single agent 0.02 ppm (other component 0)): 0%
Mortality of single agent against Spodoptera litura ([5]; single agent 0.02 ppm, cabbage leaf disk spray, three days): 0%

spinetoram
Theoretical value by Colby's equation ([2]; Haemaphysalis longicornis, single agent 0.38 μg (other component 0)): 6%
Mortality of single agent against Haemaphysalis longicornis ([2]; single agent 0.38 μg, capsule on mouse, five days, mortality and agonal rate): 6%

spinosad
Theoretical value by Colby's equation ([2]; Haemaphysalis longicornis, single agent 1.9 μg (other component 0)): 2.5%
Mortality of single agent against Haemaphysalis longicornis ([2]; single agent 1.9 μg, capsule on mouse, five days, mortality and agonal rate): 2.5%
